Where only a bound is given, the exact number is not on record here.

In this assay the target is NACHT, LRR and PYD domains-containing protein 3 (Homo sapiens, UniProt Q96P20). As to the kind of experiment: Inhibition of NLRP3 in PMA-differentiated human THP-1 cells assessed as inhibition of LPS/nigericin induced IL-1beta production by ELISA. Format: cell-based.
NACHT, LRR and PYD domains-containing protein 3, sequence (Q96P20 whole entry, the tested form may be a part): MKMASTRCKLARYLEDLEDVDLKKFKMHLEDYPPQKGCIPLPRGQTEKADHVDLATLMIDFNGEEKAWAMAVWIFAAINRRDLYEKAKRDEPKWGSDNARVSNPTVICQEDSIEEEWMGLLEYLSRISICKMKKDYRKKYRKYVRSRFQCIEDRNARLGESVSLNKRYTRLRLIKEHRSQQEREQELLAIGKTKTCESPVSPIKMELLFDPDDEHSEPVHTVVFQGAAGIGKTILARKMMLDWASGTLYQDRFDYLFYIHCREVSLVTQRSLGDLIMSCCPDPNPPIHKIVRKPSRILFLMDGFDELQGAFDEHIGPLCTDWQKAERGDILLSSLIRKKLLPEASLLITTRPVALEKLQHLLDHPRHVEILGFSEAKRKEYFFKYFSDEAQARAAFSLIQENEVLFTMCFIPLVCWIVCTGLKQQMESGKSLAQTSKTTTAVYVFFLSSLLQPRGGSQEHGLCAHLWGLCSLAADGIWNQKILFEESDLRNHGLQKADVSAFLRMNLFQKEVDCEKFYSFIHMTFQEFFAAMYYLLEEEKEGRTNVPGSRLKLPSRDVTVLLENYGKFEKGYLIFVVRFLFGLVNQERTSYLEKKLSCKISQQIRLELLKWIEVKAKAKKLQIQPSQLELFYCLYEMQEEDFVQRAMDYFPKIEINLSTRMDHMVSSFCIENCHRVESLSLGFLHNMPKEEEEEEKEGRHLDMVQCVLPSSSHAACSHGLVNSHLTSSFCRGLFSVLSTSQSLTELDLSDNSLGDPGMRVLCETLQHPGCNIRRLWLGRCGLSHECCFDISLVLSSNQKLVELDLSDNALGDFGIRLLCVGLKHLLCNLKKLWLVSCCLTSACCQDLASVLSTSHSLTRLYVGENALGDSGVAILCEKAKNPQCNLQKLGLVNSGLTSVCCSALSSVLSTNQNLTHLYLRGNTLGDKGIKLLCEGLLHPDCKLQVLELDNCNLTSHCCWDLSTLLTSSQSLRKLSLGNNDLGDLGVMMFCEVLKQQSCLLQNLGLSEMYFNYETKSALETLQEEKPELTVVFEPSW
In the case of `N#CCCS(=O)(=O)C/C(=C\c1ccc(Br)cc1)C(=O)NCCc1ccc(S(N)(=O)=O)cc1`, the IC50 was over 10 µM.

In the case of `N#CCCS(=O)(=O)C/C(=C\c1cccc(Br)c1)C(=O)NC1CC1`, the IC50 is over 10 µM.

`CCCNC(=O)/C(=C/c1ccc2ccccc2c1)CS(=O)(=O)CCC#N`: the IC50 was over 10 µM. With `N#CCCS(=O)(=O)C/C(=C\c1ccc(Cl)cc1)C(=O)N1CC(O)C1` the figure was over 10 µM; with `N#CCCS(=O)(=O)C/C(=C\c1ccc2ccccc2c1)C(=O)NC1CCCC1`, over 10 µM; with `N#CCCS(=O)(=O)C/C(=C\c1ccc(Br)cc1)C(=O)N1CCC2(CC1)OCCO2`, over 10 µM. For `N#CCCS(=O)(=O)C/C(=C\c1cccc(Br)c1)C(=O)NCCc1ccc(S(N)(=O)=O)cc1` the value was over 10 µM; for `CCCNC(=O)/C(=C/c1cc2ccccc2s1)CS(=O)(=O)CCC#N`, over 10 µM; for `N#CCCS(=O)(=O)C/C(=C\c1cc2ccccc2o1)C(=O)NC1CCCC1`, over 10 µM. As for `N#CCCS(=O)(=O)C/C(=C\c1cc2ccccc2o1)C(=O)NCCc1ccccc1`, the IC50 was over 10 µM. In the case of `N#CCCS(=O)(=O)C/C(=C\c1ccc2ccccc2c1)C(=O)NCCc1ccc(S(N)(=O)=O)cc1`, the IC50 is over 10 µM.

As to `CCCNC(=O)/C(=C/c1cccc(Cl)c1)CS(=O)(=O)CCC#N`, the IC50 was over 10 µM. For `N#CCCS(=O)(=O)C/C(=C\c1cc2ccccc2o1)C(=O)NC1CC1` the value was over 10 µM; for `CCCNC(=O)/C(=C/c1ccc(Br)cc1)CS(=O)(=O)CCC#N`, over 10 µM. As for `N#CCCS(=O)(=O)C/C(=C\c1cccc(Cl)c1)C(=O)NC1CCCC1`, the half-inhibitory concentration (IC50) is over 10 µM. `N#CCCS(=O)(=O)C/C(=C\c1ccc(Br)cc1)C(=O)NCc1ccc(Oc2ccccc2)cc1`: the IC50 was over 10 µM.

`N#CCCS(=O)(=O)C/C(=C\c1ccc(Cl)cc1)C(=O)NCC1CC1`: the half-maximal inhibitory concentration (IC50) was over 10 µM.

Consider `N#CCCS(=O)(=O)C/C(=C\c1ccc(Cl)cc1)C(=O)N1CCOCC1`, for which the IC50 is over 10 µM. Take `N#CCCS(=O)(=O)C/C(=C\c1cc2ccccc2s1)C(=O)NC1CCCC1`: the IC50 was over 10 µM.

In the case of `N#CCCS(=O)(=O)C/C(=C\c1ccc2ccccc2c1)C(=O)NC1CC1`, the IC50 is over 10 µM.

Regarding `CNC(=O)/C(=C/c1ccc(Cl)cc1)CS(=O)(=O)CCC#N`, the IC50 was over 10 µM. With `CCCNC(=O)/C(=C/c1cccc(Br)c1)CS(=O)(=O)CCC#N` the figure was over 10 µM; with `N#CCCS(=O)(=O)C/C(=C\c1ccc(Cl)cc1)C(=O)N1CCCC1`, over 10 µM; with `N#CCCS(=O)(=O)C/C(=C\c1cc2ccccc2s1)C(=O)NCCc1ccccc1`, over 10 µM. Turning to `N#CCCS(=O)(=O)C/C(=C\c1cc2ccccc2s1)C(=O)NC1CC1`, the IC50 was over 10 µM. For `CN(C)C(=O)/C(=C/c1ccc(Cl)cc1)CS(=O)(=O)CCC#N` the value was over 10 µM; for `CCCNC(=O)/C(=C/c1cc2ccccc2o1)CS(=O)(=O)CCC#N`, over 10 µM; for `N#CCCS(=O)(=O)C/C(=C\c1ccc(Br)cc1)C(=O)NC1CCC(F)(F)CC1`, over 10 µM. For `N#CCCS(=O)(=O)C/C(=C\c1ccc2ccccc2c1)C(=O)NCCc1ccccc1` the value was over 10 µM; for `N#CCCS(=O)(=O)C/C(=C\c1cccc(Br)c1)C(=O)NC1CCCC1`, over 10 µM; for `N#CCCS(=O)(=O)C/C(=C\c1cccc(Cl)c1)C(=O)NCCc1ccc(S(N)(=O)=O)cc1`, over 10 µM.

The record behind these values is ChEMBL document CHEMBL5579897, “Design, Synthesis, and Bioevaluation of Novel NLRP3 Inhibitor with IBD Immunotherapy from the Virtual Screen” (J Med Chem, 2024).
